{
  "source": "patent US6429229B1",
  "about": "“Keto acid salts and amine derivatives, and their use for preparing medicines” (Chiesi S.A., priority 1998, dated 2002)",
  "key": {"[1]": {"system": "colic distension in rat", "assay": "Colic distension in rat (colon irritated with 1% acetic acid, balloon distension, abdominal cramps counted)", "type": "in vivo", "settings": "for Mean number of abdominal cramps ± standard error: 10 min colic distension, * = different from placebo at p < 0.05 (Dunnett); for Activity in the model of colic distension (in words) / Dose at/from which active in colic distension: oral route; for Activity in the model of colic distension (in words): 1 to 20 mg/kg", "description": "This physiopathological mechanism inspired the creation of the model of distension of the colon first irritated with 1% acetic acid, in rat. […] IIS is characterized by the presence of abdominal pain. Patients having this pathology have a lowered threshold of digestive sensitivity.\nThe analgesic activity was studied on the model of digestive pain in observed rat. This pain is brought about by distension of the colon with a balloon.\nMale Sprague-Dawley rats of about 180 g, fasted from the day before, are used. Under light fluothane anesthesia, an intrarectal probe is introduced 5 cm into the anus and 1.5 ml of 1% acetic acid is injected. An hour and 30 minutes after irritation, a latex balloon (empty diameter 2 mm, length 1 cm) mounted on a polyethylene catheter is introduced into the colon to the site of the irritation.\nThe product to be tested or the vehicle (distilled water) is administered per os in a volume of 1 ml, then the rat is observed on a Petri dish.\nDistension of the colon is carried out 2 hours and 20 minutes after irritation. It is effected at a fixed volume of 1.5 ml of distilled water. The colic distension gives rise to digestive pain manifested by abdominal cramps whose number reflects the intensity of the pain. The colic distension is maintained for 10 minutes in the course of which the abdominal cramps are counted.\nStatistical analysis is carried out with the help of the Dunnett test which compares a same group of vehicle animals (40) to several groups of rats (six animals per group) having received the studied molecules. The threshold of significance is fixed at 5%.\nThe molecules are tested by the oral route at 1-10-20 mg/kg. They are dissolved in distilled water.\nThe vehicle used as placebo is comprised by distilled water.\nComparative tests 1 to 5 are products available commercially and are used as such, except ornithine chlorhydrate which is salted out by methods known in the literature and stored in solution in water."}, "[2]": {"system": "writhing test in mice", "settings": "500 and 1000 mg/kg by intravenous route in mice; cited from earlier work"}, "[3]": {"system": "somatic pain test in rat", "settings": "doses between 300 and 1000 mg/kg by subcutaneous route in rat; cited from earlier work"}, "[4]": {"system": "colic distension in rat", "settings": "cited from earlier work; for Activity on the model of colic distension (in words): background statement"}, "[5]": {"system": "writhing test in rat or a mouse", "settings": "i.p. phenylbenzoquinone or 3% acetic acid; cited from earlier work"}},
  "data": [
    {"compound": "O=C(O)CCC(=O)C(=O)O", "note": "[Comparison 1, α-keto-glutaric acid]", "values": [
      {"measurement": "Mean number of abdominal cramps ± standard error", "setting": "[1]; 1 mg/kg p.o.", "value": "17 ± 1"},
      {"measurement": "Mean number of abdominal cramps ± standard error", "setting": "[1]; 10 mg/kg p.o.", "value": "17 ± 4"},
      {"measurement": "Mean number of abdominal cramps ± standard error", "setting": "[1]; 20 mg/kg p.o.", "value": "22 ± 6"},
      {"measurement": "Activity in the model of colic distension (in words)", "setting": "[1]", "value": "inactive"}
    ]},
    {"compound": "Cl.NCCC[C@H](N)C(=O)O", "note": "[Comparison 2, Ornithine, HCl]", "values": [
      {"measurement": "Mean number of abdominal cramps ± standard error", "setting": "[1]; 1 mg/kg p.o.", "value": "20 ± 3"},
      {"measurement": "Mean number of abdominal cramps ± standard error", "setting": "[1]; 10 mg/kg p.o.", "value": "19 ± 6"},
      {"measurement": "Mean number of abdominal cramps ± standard error", "setting": "[1]; 20 mg/kg p.o.", "value": "18 ± 6"},
      {"measurement": "Activity in the model of colic distension (in words)", "setting": "[1]", "value": "inactive"},
      {"measurement": "Activity in the writhing test (in words)", "setting": "[2]", "value": "active"},
      {"measurement": "Activity in a somatic pain test (in words)", "setting": "[3]", "value": "active"}
    ]},
    {"compound": "CCC(=O)C(=O)O", "note": "[Comparison 3, α-keto-butyric acid]", "values": [
      {"measurement": "Mean number of abdominal cramps ± standard error", "setting": "[1]; 1 mg/kg p.o.", "value": "19 ± 2"},
      {"measurement": "Mean number of abdominal cramps ± standard error", "setting": "[1]; 10 mg/kg p.o.", "value": "20 ± 3"},
      {"measurement": "Mean number of abdominal cramps ± standard error", "setting": "[1]; 20 mg/kg p.o.", "value": "19 ± 3"},
      {"measurement": "Activity in the model of colic distension (in words)", "setting": "[1]", "value": "inactive"}
    ]},
    {"compound": "NC(=O)CC[C@H](N)C(=O)O", "note": "[Comparison 4, Glutamine]", "values": [
      {"measurement": "Mean number of abdominal cramps ± standard error", "setting": "[1]; 1 mg/kg p.o.", "value": "21 ± 2"},
      {"measurement": "Dose at/from which active in colic distension", "setting": "[1]", "value": 10, "unit": "mg/kg"},
      {"measurement": "Activity in the test of colic distension (in words)", "setting": "[4]; 6 mg/kg by rectal route in rat (local administration on the irritated colic mucosa)", "value": "active"}
    ]},
    {"compound": "N=C(N)NCCC[C@H](N)C(=O)O", "note": "[Comparison 5, Arginine]", "values": [
      {"measurement": "Mean number of abdominal cramps ± standard error", "setting": "[1]; 1 mg/kg p.o.", "value": "20 ± 6"},
      {"measurement": "Mean number of abdominal cramps ± standard error", "setting": "[1]; 10 mg/kg p.o.", "value": "20 ± 9"},
      {"measurement": "Dose at/from which active in colic distension", "setting": "[1]", "value": "≥ 20", "unit": "mg/kg"}
    ]},
    {"compound": "CN1CC[C@]23c4c5ccc(O)c4O[C@H]2[C@@H](O)C=C[C@H]3[C@H]1C5", "note": "[Morphine]", "values": [
      {"measurement": "Activity on the model of colic distension (in words)", "setting": "[4]", "value": "active"}
    ]},
    {"compound": "CC(=O)Oc1ccccc1C(=O)O", "note": "[aspirin]", "values": [
      {"measurement": "Activity on the model of colic distension (in words)", "setting": "[4]", "value": "inactive"},
      {"measurement": "Activity in the writhing test (in words)", "setting": "[5]", "value": "active"}
    ]},
    {"compound": "CC(=O)Nc1ccc(O)cc1", "note": "[paracetamol]", "values": [
      {"measurement": "Activity on the model of colic distension (in words)", "setting": "[4]", "value": "inactive"},
      {"measurement": "Activity in the writhing test (in words)", "setting": "[5]", "value": "active"}
    ]},
    {"compound": "Di-arginine Keto-glutarate [Example 3]", "values": [
      {"measurement": "Mean number of abdominal cramps ± standard error", "setting": "[1]; 1 mg/kg p.o.", "value": "17 ± 9"}
    ]},
    {"compound": "Di-ornithine Keto-glutarate [Example 2]", "values": [
      {"measurement": "Dose at/from which active in colic distension", "setting": "[1]", "value": 1, "unit": "mg/kg"}
    ]},
    {"compound": "Mono-ornithine Keto-butyrate [Example 6]", "values": [
      {"measurement": "Dose at/from which active in colic distension", "setting": "[1]", "value": "≥ 1", "unit": "mg/kg"}
    ]},
    {"compound": "Mono-ornithine Keto-glutarate [Example 1]", "values": [
      {"measurement": "Dose at/from which active in colic distension", "setting": "[1]", "value": 1, "unit": "mg/kg"}
    ]},
    {"compound": "Ornithine and Arginine Keto-glutarate [Example 4]", "values": [
      {"measurement": "Mean number of abdominal cramps ± standard error", "setting": "[1]; 1 mg/kg p.o.", "value": "18 ± 2"}
    ]},
    {"compound": "Ornithine and Glutamine Keto-glutarate [Example 5]", "values": [
      {"measurement": "Dose at/from which active in colic distension", "setting": "[1]", "value": "≥ 1", "unit": "mg/kg"}
    ]}
  ]
}
